Values quoted from earlier work, collected in patent US20090022786A1, “Oral pharmaceutical dosage form and manufacturing method thereof” (YUNG SHIN PHARM. IND. CO., LTD., priority 2007, published 2009).
Structures can show the parent of a compound that is named as a salt. Where two headings read alike, the source gives them in different places.

Columns and labels:
[1] = test system: gastric acid secretion; conditions: oral
[2] = not given; remark: listed apart in the source
[3] = not given; remark: listed apart in the source
[4] = not given; remark: listed apart in the source
[5] = as glucuronate- or sulfate-associated form

For `CCCCC(C)(O)C/C=C/[C@H]1[C@H](O)CC(=O)[C@@H]1CCCCCCC(=O)OC` (mixture of isomers) [Misoprostol, (±) methyl 11α,16-dihydroxy-16-methyl-9-oxoprost-13E-en-1-oate], which “Time to inhibition of gastric acid secretion” value [1] is on record?
The value was ≤ 30 min.

And the “Stability at room temperature” value (room temperature)?
The value was “very unstable”.

What about the Solubility in water [2] of the same compound?
Its Solubility in water is “soluble”.

What about the “Fraction eliminated with urine” value ([3]; in 24 hours) of the same compound?
Its value is 64-73%.

What about the Elimination half-life ([3]; in vivo) of the same compound?
Its Elimination half-life is 20 to 40 min.

And the “Fraction eliminated with the faeces” value ([3]; in vivo)?
Its value is 15%.

What about the “Absorption after oral administration” value ([3]; oral) of the same compound?
The value was “rapidly absorbed”.

What about the “Time of maximum plasma concentration” value ([3]; oral) of the same compound?
Its value is 15 to 30 min.

Which results are given for `O=C(O)Cc1ccccc1Nc1c(Cl)cccc1Cl` [Diclofenac sodium, 2-[(2,6-dichlorophenyl)amino] benzene acetic acid, monosodium salt]?
Stability to humidity and light (humidity and light): accessible to be destroyed by humidity and light; Solubility in chloroform ([2]; chloroform): extremely insoluble; Solubility in ethanol ([2]; ethanol): soluble; Solubility in methanol ([2]; methanol): soluble; Solubility in water [2]: somewhat; Fraction eliminated with the faeces after biliary secretion [4, 5]: 1/30; Fraction eliminated with urine [4, 5]: ⅔; Binding to plasma protein ([4]; in vivo): More than 90%; Half-life ([4]; in vivo): 60 to 120 min; Fraction entering systematic circulation ([4]; oral): 50-60%; Peak value of plasma concentration ([4]; oral single dose of 50 mg): 1.5 µg/mL; Time of maximum plasma concentration ([4]; oral single dose of 50 mg): 1 to 2 h
